Assay results from article PMC12030706, “Novel ^177Lu-Labeled [Thz^14]Bombesin(6–14) Derivatives with Low Pancreas Accumulation for Targeting Gastrin-Releasing Peptide Receptor-Expressing Cancer” (Pharmaceuticals, 2025).

Tests used:
[1] = biological target: T1, GRPR (PC-3 cells) (Homo sapiens, UniProt P30550); experiment: Fluorometric intracellular calcium release assay; format: cell-based; conditions: 50 nM, n = 3
T1 construct: GRPR-expressing prostate cancer PC-3 cells; host or cells: PC-3 prostate adenocarcinoma cells
Method: The antagonist/agonist characteristics of Lu-TacsBOMB5, Lu-LW01110, and Lu-LW01142 were determined following previously published procedure. A 96-well clear bottom black plate was seeded with 5 × 10^4 PC-3 prostate cancer cells/100 μL/well 24 h prior to the assay. The calcium-sensitive dye (FLIPR Calcium 6 assay kit from Molecular Devices, San Jose, CA, USA) in loading buffer (100 μL/well) was added into the 96-well plate, followed by 1 h incubation at 37 °C. After that, the plate was transferred into a FlexStation 3 microplate reader (Molecular Devices, San Jose, CA, USA). Lu-complexed nonradioactive standard (50 nM), [D-Phe^6,Leu-NHEt^13,des-Met^14]Bombesin(6–14) (50 nM, antagonist control), bombesin (50 nM, agonist control), adenosine triphosphate (ATP, 50 nM, positive control), or DPBS (blank control) was added, and the fluorescent signals were acquired for 2 min (λEx = 485 nm; λEm = 525 nm; n = 3). The relative fluorescent unit (RFU = max − min) was calculated to determine the agonistic/antagonistic characteristics for the tested ligands.

[2] = tested on: PC-3 tumor xenografts; conditions: in vivo, 1 h; cited from earlier work

T1 sequence (P30550 whole entry): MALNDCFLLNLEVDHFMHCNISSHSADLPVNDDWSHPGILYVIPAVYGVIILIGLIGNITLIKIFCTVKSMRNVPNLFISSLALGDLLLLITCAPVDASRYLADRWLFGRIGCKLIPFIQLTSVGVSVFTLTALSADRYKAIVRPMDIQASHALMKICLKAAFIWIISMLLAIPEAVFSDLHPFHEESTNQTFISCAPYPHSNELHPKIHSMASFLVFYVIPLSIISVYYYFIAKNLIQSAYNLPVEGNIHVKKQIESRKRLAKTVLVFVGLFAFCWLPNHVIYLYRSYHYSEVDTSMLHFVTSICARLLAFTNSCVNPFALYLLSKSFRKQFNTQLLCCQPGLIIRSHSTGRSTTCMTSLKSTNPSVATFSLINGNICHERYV

Row | Compound | Ca2+ efflux (RFU = max − min) [1] | uptake in PC-3 tumor xenografts [2]
1 | Nc1ncnc2c1ncn2[C@@H]1O[C@H](COP(=O)(O)OP(=O)(O)OP(=O)(O)O)[C@@H](O)[C@H]1O [ATP, adenosine triphosphate] | 150 ± 40.7 RFUs | –
2 | [D-Phe^6,Leu-NHEt^13,des-Met^14]Bombesin(6–14) | 29.7 ± 2.73 RFUs | –
3 | ^68Ga-DOTA-Pip-[D-Phe^6,NMe-Gly^11,Leu^13ψThz^14]Bombesin(6–14) [[^68Ga]Ga-TacsBOMB5] | – | 15.7 ± 2.17 %ID/g
4 | ^68Ga-DOTA-Pip-[D-Phe^6,Tle^10,NMe-His^12,Thz^14]Bombesin(6–14) [[^68Ga]Ga-LW01110] | – | 16.6 ± 1.60 %ID/g
5 | bombesin | 235 ± 15.2 RFUs | –
